Measurements as given in patent US5508266A, “Gem-disubstituted amino acid derivatives” (Ciba-Geigy Corporation, priority 1994, dated 1996).
pIC50: −log10 of the molar value.

How the values were obtained:
[1] = target: T1, angiotensin converting enzyme (Rattus norvegicus, UniProt P47820); experiment: Inhibition of angiotensin I induced pressor response in normotensive rats; type: in vivo; conditions: 10 mg/Kg i.v., male normotensive anesthetized rats, 300 ng/kg angiotensin I i.v. challenge
T1 construct: from tissue; host or cells: whole animal: male, normotensive rats
T1 sequence (P47820 36-1313): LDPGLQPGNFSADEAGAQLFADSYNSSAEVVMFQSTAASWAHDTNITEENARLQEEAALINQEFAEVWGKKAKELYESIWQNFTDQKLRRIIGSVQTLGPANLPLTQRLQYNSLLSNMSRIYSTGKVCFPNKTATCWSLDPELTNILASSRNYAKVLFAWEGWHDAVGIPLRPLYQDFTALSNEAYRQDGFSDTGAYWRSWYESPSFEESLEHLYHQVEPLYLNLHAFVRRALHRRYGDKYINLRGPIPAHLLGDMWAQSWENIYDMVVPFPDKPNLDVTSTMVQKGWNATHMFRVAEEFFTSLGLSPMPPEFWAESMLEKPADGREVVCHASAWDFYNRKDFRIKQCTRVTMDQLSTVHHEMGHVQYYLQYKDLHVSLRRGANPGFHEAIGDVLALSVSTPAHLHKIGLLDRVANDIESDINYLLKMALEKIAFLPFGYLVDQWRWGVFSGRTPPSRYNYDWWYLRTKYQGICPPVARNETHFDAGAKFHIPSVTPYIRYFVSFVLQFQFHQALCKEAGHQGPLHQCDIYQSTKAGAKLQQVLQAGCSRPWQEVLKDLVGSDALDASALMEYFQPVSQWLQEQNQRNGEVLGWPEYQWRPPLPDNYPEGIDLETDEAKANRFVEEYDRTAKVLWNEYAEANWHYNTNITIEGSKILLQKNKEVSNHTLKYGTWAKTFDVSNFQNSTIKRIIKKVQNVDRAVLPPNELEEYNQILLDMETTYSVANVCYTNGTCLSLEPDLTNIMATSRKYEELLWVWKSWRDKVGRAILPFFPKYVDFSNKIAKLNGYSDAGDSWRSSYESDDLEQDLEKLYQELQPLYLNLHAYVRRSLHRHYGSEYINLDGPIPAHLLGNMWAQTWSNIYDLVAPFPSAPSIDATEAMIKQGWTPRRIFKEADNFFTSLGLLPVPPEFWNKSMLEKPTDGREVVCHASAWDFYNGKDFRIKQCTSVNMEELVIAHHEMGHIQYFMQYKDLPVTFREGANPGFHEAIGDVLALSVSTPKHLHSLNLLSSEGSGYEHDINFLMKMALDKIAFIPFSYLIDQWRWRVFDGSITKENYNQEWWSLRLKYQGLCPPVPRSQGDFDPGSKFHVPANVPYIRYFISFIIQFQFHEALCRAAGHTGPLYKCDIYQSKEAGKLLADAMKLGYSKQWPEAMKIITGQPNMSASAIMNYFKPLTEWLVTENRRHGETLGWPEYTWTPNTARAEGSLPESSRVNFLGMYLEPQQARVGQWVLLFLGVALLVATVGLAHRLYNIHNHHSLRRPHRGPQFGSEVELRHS
Description: The in vivo test for intravenously administered compounds is performed with male, normotensive rats, which are anesthetized with sodium metofan. A femoral artery and femoral vein are cannulated respectively for direct blood pressure measurement on i.v. administration of angiotensin I and i.v. or p.o. administration of a compound of this invention. After the basal blood pressure is stabilized, pressor responses to 3 challenges of 300 ng/kg angiotensin I i.v., at 15 minute intervals, are obtained. Such pressure responses are usually again obtained at 15, 30, 60 and 90 minutes, and then every hour up to 6 hours after i.v. or p.o. administration of the compound to be tested, and compared with the initial responses. Any observed decrease of said pressor response is an indication of Angiotensin I converting enzyme inhibition.

[2] = target: T2, neutral endopeptidase (NEP, EC 3.4.24.11) (Rattus norvegicus, UniProt P07861); experiment: GAAP in vitro assay of neutral endopeptidase (rat kidney cortex membranes); type: biochemical; conditions: substrate glutaryl-Ala-Ala-Phe-2-naphthylamide 500 μM, pH 7.4 at 25° C.
T2 construct: 4.2 μg of protein (rat kidney cortex membranes prepared by method of Maeda et at, 1983); from tissue; host or cells: rat kidney cortex membranes
T2 sequence (P07861 1-750): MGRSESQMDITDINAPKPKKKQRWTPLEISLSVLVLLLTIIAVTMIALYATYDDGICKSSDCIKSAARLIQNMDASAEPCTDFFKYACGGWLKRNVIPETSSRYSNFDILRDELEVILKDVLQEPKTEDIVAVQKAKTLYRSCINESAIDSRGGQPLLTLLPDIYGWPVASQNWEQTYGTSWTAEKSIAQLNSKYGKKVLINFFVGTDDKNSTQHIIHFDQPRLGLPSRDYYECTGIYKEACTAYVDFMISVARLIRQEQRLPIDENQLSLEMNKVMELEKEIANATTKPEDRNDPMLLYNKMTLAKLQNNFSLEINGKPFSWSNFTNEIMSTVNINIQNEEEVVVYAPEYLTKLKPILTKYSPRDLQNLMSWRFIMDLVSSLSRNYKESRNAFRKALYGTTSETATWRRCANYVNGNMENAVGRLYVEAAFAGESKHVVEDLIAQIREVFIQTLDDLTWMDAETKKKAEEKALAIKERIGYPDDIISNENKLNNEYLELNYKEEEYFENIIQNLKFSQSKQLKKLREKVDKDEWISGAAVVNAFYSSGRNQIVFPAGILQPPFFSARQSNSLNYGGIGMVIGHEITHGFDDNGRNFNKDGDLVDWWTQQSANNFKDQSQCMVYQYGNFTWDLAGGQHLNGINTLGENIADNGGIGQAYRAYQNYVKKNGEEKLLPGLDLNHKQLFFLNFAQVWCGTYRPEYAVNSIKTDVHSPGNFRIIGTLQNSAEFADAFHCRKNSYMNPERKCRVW
Description: In vitro testing is most appropriate for the free carboxylic acids of the invention. The test compound is dissolved in dimethyl sulfoxide, ethanol, or 0.25M sodium bicarbonate solution, and the solution is diluted with buffer to the desired concentration.
The in vitro inhibition of neutral endopeptidase (NEP, EC 3.4.24.11) can be determined as follows:
Neutral endopeptidase 3.4.24.11 activity is determined by the hydrolysis of the substrate glutaryl-Ala-Ala-Phe-2-naphthylamide (GAAP) using a modified procedure of Orlowski and Wilk (1981). The incubation mixture (total volume 125 μl) contains 4.2 μg of protein (rat kidney cortex membranes prepared by method of Maeda et at, 1983), 50 mM tris buffer, pH 7.4 at 25° C., 500 μM substrate (final concentration), and leucine aminopeptidase M (2.5 μg). The mixture is incubated for 10 minutes at 25° C. and 100 μl of fast garnet (250 μg fast garnet/ml of 10% Tween 20 in 1M sodium acetate, pH 4.2) is added. Enzyme activity is measured spectrophotometrically at 540 nm. One unit of NEP 24.11 activity is defined as 1 nmol of 2-naphthylamine released per minute at 25° C. at pH 7.4. IC50 values are determined, i.e. the concentration of test compound required for 50% inhibition of the release of 2-naphthylamine.

With `CC(C)[C@H](S)C(=O)NC(C)(C)C(=O)N[C@@H](Cc1ccc(O)cc1)C(=O)O` [Example 2, N-[2-(2(S)-mercapto-3-methyl-1-oxobutylamino)-2-methyl-1-oxopropyl]-L-tyrosine] as the molecule, how does the “duration of inhibition of the Angiotensin I induced pressor response” value [1] read?
The value was 6 h.

And the pIC50 [2]?
The pIC50 was roughly 8.04.
